Like-named read-outs stand apart in the source and are kept apart here.
How the values were obtained:
[1] = target: recombinant human Myt1 (full length PKMYT1) (Homo sapiens (Human), UniProt Q99640); experiment: Recombinant human Myt1 kinase assay (ADP-Glo); format: biochemical; conditions: 10 μM ATP
How it was run: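 ADP-Glo luminescence measured ATP hydrolysis by recombinant full-length PKMYT1 (18 nM) after 60 min at 30 °C with 10 μM ATP. Compounds in 0.5% DMSO were added to the enzyme 15 min before ATP, at 22 °C, in HEPES/MgCl2/MnCl2 buffer. IC50 and percent maximal inhibition were derived.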

[2] = tested on: PKMYT1 (CDK1 pThr14) in FUOV1 cells; experiment: PKMYT1 cell-based activity assay, CDK1 pThr14 AlphaLISA in FUOV1 cells; conditions: read-out: FUOV-1 CDK1 pThr14 IC50
How it was run: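 IC50 was derived from AlphaLISA signal (excitation 680 nm, emission 615 nm) for phospho-Thr14 CDK1 in lysates. The detection antibodies were rabbit anti-pThr14 and mouse anti-total CDK1, each at 5 nM. FUOV1 ovarian cells were exposed to compound for 2 hours before lysis.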

recombinant human Myt1 (full length PKMYT1), sequence (Q99640 whole entry): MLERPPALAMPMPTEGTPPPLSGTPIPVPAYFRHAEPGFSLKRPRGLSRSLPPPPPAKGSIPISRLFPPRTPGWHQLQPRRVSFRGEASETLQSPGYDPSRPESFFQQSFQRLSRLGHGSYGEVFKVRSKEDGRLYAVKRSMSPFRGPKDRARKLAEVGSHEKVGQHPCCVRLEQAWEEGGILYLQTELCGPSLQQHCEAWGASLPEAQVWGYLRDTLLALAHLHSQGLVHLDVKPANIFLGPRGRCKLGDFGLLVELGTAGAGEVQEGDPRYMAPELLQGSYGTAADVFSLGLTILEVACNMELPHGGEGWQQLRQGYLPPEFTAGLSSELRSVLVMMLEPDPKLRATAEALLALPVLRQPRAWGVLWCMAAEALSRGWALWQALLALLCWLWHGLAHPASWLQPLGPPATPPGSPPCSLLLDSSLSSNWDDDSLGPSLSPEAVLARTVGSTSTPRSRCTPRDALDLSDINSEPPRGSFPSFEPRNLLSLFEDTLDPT

| SMILES | IC50 [1] [nM] | IC50 ([2]; 2 h, 2 hours with compound) [nM] | IC50 ([2]; 2 h, 2 h compound incubation) [nM] | IC50 ([2]; 2 h, 2 h incubation) [nM] | IC50 ([2]; 2 h incubation) [nM] |
| --- | --- | --- | --- | --- | --- |
| Cc1ccc2[nH]ncc2c1-c1nc(-c2cccnc2N[C@H]2CCOCC2(C)C)nc(C(N)=O)c1N [Compound 830] | 8 | 305 | – | – | – |
| Cc1ccc(-c2nc(C(N)=O)c(N)c(-c3c(C)ccc4[nH]ncc34)n2)c(NC(=O)C2(C)CC2)c1 [Compound 433] | 5 | – | 13 | – | – |
| Cc1ccc2[nH]ncc2c1-c1nc(-c2ccc(C(F)(F)F)cc2NC(=O)C2(C)CC2)nc(C(N)=O)c1N [Compound 454, 5-amino-6-(5-methyl-1H-indazol-4-yl)-2-(2-(1-methylcyclopropane-1-carboxamido)-4-(trifluoromethyl)phenyl)pyrimidine-4-carboxamide] | 26 | – | 447 | – | – |
| Cc1ccc(O)c(C)c1-c1cc(-c2ccc(C(F)(F)F)cc2)nc(C(N)=O)c1N [Compound 15] | 20 | – | – | 2520 | – |
| Cc1ccc(O)c(C)c1-c1cc(-c2cccc(C(N)=O)c2)nc(C(N)=O)c1N [Compound 51] | 8 | – | – | 357 | – |
| Cc1ccc2[nH]ncc2c1-c1nc(-c2ccc3c(cnn3C)c2)nc(C(N)=O)c1N [Compound 114] | 46 | – | – | 3760 | – |
| Cc1ccc(O)c(C)c1-c1cc(-c2nc3ccccc3s2)nc(C(N)=O)c1N [Compound 55] | 15 | – | – | – | 146 |
| Cc1ccc(O)c(C)c1-c1cc(-c2ncc(F)cc2F)nc(C(N)=O)c1N [Compound 39] | 7 | – | – | 266 | – |
| Cc1ccc(O)cc1-c1nc(-c2cccc(Cl)c2)nc(C(N)=O)c1N [Compound 29] | 25 | – | – | 1220 | – |
| Cc1ccc2[nH]ncc2c1-c1nc(-c2cc(Cl)ccc2NC(=O)C2(C)CC2)nc(C(N)=O)c1N [Compound 439] | 6 | – | 42 | – | – |
| Cc1cc(Nc2cc(F)ccc2-c2nc(C(N)=O)c(N)c(-c3c(C)ccc4[nH]ncc34)n2)cc(C)n1 [Compound 624] | 8 | – | 489 | – | – |
| Cc1ccc2[nH]ncc2c1-c1nc(-c2cccc(C#N)c2)nc(C(N)=O)c1N [Compound 131, 5-amino-2-(3-cyanophenyl)-6-(5-methyl-1H-indazol-4-yl)pyrimidine-4-carboxamide] | 22 | – | – | 1370 | – |
| Cc1ccc2[nH]ncc2c1-c1nc(-c2ccc(F)cc2Nc2cc(C3CC3)ncn2)nc(C(N)=O)c1N [Compound 615] | 16 | – | 515 | – | – |
| Cc1ccc2[nH]ncc2c1-c1nc(-c2cccc3c2NCCO3)nc(C(N)=O)c1N [Compound 852] | 17 | 502 | – | – | – |
| Cc1ccc2[nH]ncc2c1-c1nc(-c2ccccc2NC2CC2)nc(C(N)=O)c1N [Compound 476] | 3 | – | 25 | – | – |
| NC(=O)c1nc(-c2ccccc2)nc(-c2cccc3[nH]nc(F)c23)c1N [Compound 123] | 99 | – | – | > 10000 | – |
| Cc1ccc2[nH]ncc2c1-c1nc(-c2cc(F)c(F)cc2NC(=O)C2(C)CC2)nc(C(N)=O)c1N [Compound 446] | 8 | – | 8 | – | – |
| Cc1ccc2[nH]ncc2c1-c1nc(-c2ccc(Cl)cc2NC(=O)C2(C)CC2)nc(C(N)=O)c1N [Compound 438] | 4 | – | 17 | – | – |
| Cc1ncc(C#N)c(Nc2cc(F)ccc2-c2nc(C(N)=O)c(N)c(-c3c(C)ccc4[nH]ncc34)n2)n1 [Compound 618] | 3 | – | 5 | – | – |
| Cc1ccc2[nH]ncc2c1-c1nc(-c2cn(CC3CC3)nc2NC2CCOCC2)nc(C(N)=O)c1N [Compound 892] | 15 | 589 | – | – | – |
| Cc1ccc2[nH]ncc2c1-c1nc(-c2ccccc2NC(C)C(F)(F)F)nc(C(N)=O)c1N (stereo not drawn) [Compound 381, 5-amino-6-(5-methyl-1H-indazol-4-yl)-2-(2-((1,1,1-trifluoropropan-2-yl)amino)phenyl)pyrimidine-4-carboxamide] | 11 | – | – | 13 | – |
| CCOC(=O)Nc1ccccc1-c1nc(C(N)=O)c(N)c(-c2c(C)ccc3[nH]ncc23)n1 [Compound 473] | 8 | – | 48 | – | – |
| Cc1ccc2[nH]ncc2c1-c1nc(-c2cc(F)cc3c2NC(=O)C3)nc(C(N)=O)c1N [Compound 393] | 6 | – | – | 288 | – |
| Cc1ccc2[nH]ncc2c1-c1nc(-c2cc(F)cnc2N[C@H]2CC[C@@](O)(C(F)(F)F)CC2)nc(C(N)=O)c1N [Compound 834] | 21 | 490 | – | – | – |
| CCCc1ccccc1-c1nc(C(N)=O)c(N)c(-c2c(C)ccc3[nH]ncc23)n1 [Compound 796] | 15 | 781 | – | – | – |
| Cc1ccc(O)cc1-c1nc(-c2ccc(N3CCN(CCO)CC3)cc2)nc(C(N)=O)c1N [Compound 6] | 24 | – | – | 1010 | – |

Now from value to compound:

| IC50 [1] [nM] | IC50 ([2]; 2 h, 2 hours with compound) [nM] | IC50 ([2]; 2 h, 2 h compound incubation) [nM] | IC50 ([2]; 2 h, 2 h incubation) [nM] | IC50 ([2]; 2 h incubation) [nM] | SMILES |
| --- | --- | --- | --- | --- | --- |
| 6 | – | – | 106 | – | Cc1ccc2[nH]ncc2c1-c1cc(-c2ccnc(O[C@H]3CO[C@H]4OCC[C@H]43)n2)nc(C(N)=O)c1N [Compound 208] |
| 23 | – | – | 1100 | – | Cc1ccc2[nH]ncc2c1-c1cc(-c2ccnc(OC3CCCC3)n2)nc(C(N)=O)c1N [Compound 170] |
| 6 | – | 26 | – | – | Cc1ccc2[nH]ncc2c1-c1nc(-c2cc(F)ccc2Nc2ncccn2)nc(C(N)=O)c1N [Compound 472] |
| 5 | – | – | 22 | – | CO[C@H](COc1nccc(-c2cc(-c3c(C)ccc4[nH]ncc34)c(N)c(C(N)=O)n2)n1)c1ccccc1 (atropisomer, axis not shown) [Compound 309] |
| 2 | – | – | – | 68 | COc1ccc(-c2cc(-c3c(C)ccc(O)c3C)c(N)c(C(N)=O)n2)nc1 [Compound 61] |
| 4 | – | – | 208 | – | Cc1ccc2[nH]ncc2c1-c1cc(-c2ccnc(OCc3ccncc3)n2)nc(C(N)=O)c1N [Compound 230] |
| 28 | – | – | 774 | – | CNc1ccccc1-c1nc(C(N)=O)c(N)c(-c2c(C)ccc3[nH]ncc23)n1 [Compound 365] |
| 6 | – | – | – | 268 | Cc1ccc2[nH]ncc2c1-c1cc(-c2ccnc(OCC(F)(F)F)n2)nc(C(N)=O)c1N [Compound 159] |
| 9 | – | – | 349 | – | Cc1ccc2[nH]ncc2c1-c1cc(-c2ccnc(OCCn3ccnc3)n2)nc(C(N)=O)c1N [Compound 315] |
| 7 | – | – | 388 | – | Cc1ccc2[nH]ncc2c1-c1cc(-c2ccnc(OC(C)C)n2)nc(C(N)=O)c1N [Compound 160, 3-amino-6-(2-isopropoxypyrimidin-4-yl)-4-(5-methyl-1H-indazol-4-yl)picolinamide] |
| 3 | – | – | 109 | – | COCCOc1nccc(-c2cc(-c3c(C)ccc4[nH]ncc34)c(N)c(C(N)=O)n2)n1 [Compound 166] |
| 11 | – | – | 436 | – | Cc1ccc2[nH]ncc2c1-c1cc(-c2ccnc(NC3CC3)n2)nc(C(N)=O)c1N [Compound 163] |
| 3 | – | – | 21 | – | CC[C@H](COc1nccc(-c2cc(-c3c(C)ccc4[nH]ncc34)c(N)c(C(N)=O)n2)n1)OC (atropisomer, axis not shown) [Compound 333] |
| 6 | – | – | 137 | – | Cc1ccc2[nH]ncc2c1-c1cc(-c2ccnc(Oc3cccnc3)n2)nc(C(N)=O)c1N [Compound 199] |
| 58 | – | – | – | 945 | Cc1ccc2[nH]ncc2c1-c1cc(-c2ccnnc2)nc(C(N)=O)c1N [Compound 86] |
| 12 | – | – | 192 | – | Cc1ccc2[nH]ncc2c1-c1cc(-c2ccnc(OC3CCOC3)n2)nc(C(N)=O)c1N (stereo not drawn) [Compound 212] |

Reference: US20250304537A1 (Repare Therapeutics Inc., priority 2022, published 2025)
